Measured values reported in BigSolDB 2.1.

c1ccc(-c2nnn[nH]2)cc1
Settings | solubility (mole fraction)
in 1,4-dioxane, 283.15 K | 0.00929
in 1,4-dioxane, 285.65 K | 0.00982
in 1,4-dioxane, 288.15 K | 0.0104
in 1,4-dioxane, 290.65 K | 0.0109
in 1,4-dioxane, 293.15 K | 0.0114
in 1,4-dioxane, 295.65 K | 0.012
in 1,4-dioxane, 298.15 K | 0.0125
in 1,4-dioxane, 300.65 K | 0.0131
in 1,4-dioxane, 303.15 K | 0.0138
in 1,4-dioxane, 305.65 K | 0.0145
in 1,4-dioxane, 308.15 K | 0.0151
in 1,4-dioxane, 310.65 K | 0.0158
in 1,4-dioxane, 313.15 K | 0.0165
in 1,4-dioxane, 315.65 K | 0.0172
in 1,4-dioxane, 318.15 K | 0.018
in 2-butanone, 283.15 K | 0.0156
in 2-butanone, 285.65 K | 0.0163
in 2-butanone, 288.15 K | 0.017
in 2-butanone, 290.65 K | 0.0178
in 2-butanone, 293.15 K | 0.0185
in 2-butanone, 295.65 K | 0.0193
in 2-butanone, 298.15 K | 0.0202
in 2-butanone, 300.65 K | 0.0211
in 2-butanone, 303.15 K | 0.022
in 2-butanone, 305.65 K | 0.023
in 2-butanone, 308.15 K | 0.0239
in 2-butanone, 310.65 K | 0.0249
in 2-butanone, 313.15 K | 0.026
in 2-butanone, 315.65 K | 0.0271
in 2-butanone, 318.15 K | 0.0281
in DMF, 283.15 K | 0.208
in DMF, 285.65 K | 0.22
in DMF, 288.15 K | 0.231
in DMF, 290.65 K | 0.244
in DMF, 293.15 K | 0.257
in DMF, 295.65 K | 0.269
in DMF, 298.15 K | 0.282
in DMF, 300.65 K | 0.296
in DMF, 303.15 K | 0.308
in DMF, 305.65 K | 0.322
in DMF, 308.15 K | 0.336
in DMF, 310.65 K | 0.35
in DMF, 313.15 K | 0.365
in DMF, 315.65 K | 0.379
in DMF, 318.15 K | 0.393
in DMSO, 293.15 K | 0.278
in DMSO, 295.65 K | 0.291
in DMSO, 298.15 K | 0.304
in DMSO, 300.65 K | 0.317
in DMSO, 303.15 K | 0.33
in DMSO, 305.65 K | 0.343
in DMSO, 308.15 K | 0.356
in DMSO, 310.65 K | 0.369
in DMSO, 313.15 K | 0.384
in DMSO, 315.65 K | 0.398
in DMSO, 318.15 K | 0.412
in acetone, 283.15 K | 0.0169
in acetone, 285.65 K | 0.0176
in acetone, 288.15 K | 0.0184
in acetone, 290.65 K | 0.0192
in acetone, 293.15 K | 0.02
in acetone, 295.65 K | 0.0208
in acetone, 298.15 K | 0.0217
in acetone, 300.65 K | 0.0226
in acetone, 303.15 K | 0.0236
in acetone, 305.65 K | 0.0245
in acetone, 308.15 K | 0.0256
in acetone, 310.65 K | 0.0266
in acetone, 313.15 K | 0.0278
in acetone, 315.65 K | 0.029
in acetone, 318.15 K | 0.0302
in acetonitrile, 283.15 K | 0.00181
in acetonitrile, 285.65 K | 0.00197
in acetonitrile, 288.15 K | 0.00216
in acetonitrile, 290.65 K | 0.00236
in acetonitrile, 293.15 K | 0.00253
in acetonitrile, 295.65 K | 0.0028
in acetonitrile, 298.15 K | 0.00307
in acetonitrile, 300.65 K | 0.00331
in acetonitrile, 303.15 K | 0.00359
in acetonitrile, 305.65 K | 0.00389
in acetonitrile, 308.15 K | 0.00421
in acetonitrile, 310.65 K | 0.00449
in acetonitrile, 313.15 K | 0.0049
in acetonitrile, 315.65 K | 0.0052
in acetonitrile, 318.15 K | 0.00555
in cyclohexane, 283.15 K | 3.56e-06
in cyclohexane, 285.65 K | 3.93e-06
in cyclohexane, 288.15 K | 4.34e-06
in cyclohexane, 290.65 K | 4.54e-06
in cyclohexane, 293.15 K | 5.04e-06
in cyclohexane, 295.65 K | 5.38e-06
in cyclohexane, 298.15 K | 5.97e-06
in cyclohexane, 300.65 K | 6.41e-06
in cyclohexane, 303.15 K | 6.91e-06
in cyclohexane, 305.65 K | 7.5e-06
in cyclohexane, 308.15 K | 8.16e-06
in cyclohexane, 310.65 K | 8.97e-06
in cyclohexane, 313.15 K | 9.6e-06
in cyclohexane, 315.65 K | 1.04e-05
in cyclohexane, 318.15 K | 1.11e-05
in ethanol, 283.15 K | 0.0148
in ethanol, 285.65 K | 0.0156
in ethanol, 288.15 K | 0.0164
in ethanol, 290.65 K | 0.0172
in ethanol, 293.15 K | 0.0181
in ethanol, 295.65 K | 0.019
in ethanol, 298.15 K | 0.02
in ethanol, 300.65 K | 0.0209
in ethanol, 303.15 K | 0.022
in ethanol, 305.65 K | 0.023
in ethanol, 308.15 K | 0.0241
in ethanol, 310.65 K | 0.0253
in ethanol, 313.15 K | 0.0264
in ethanol, 315.65 K | 0.0277
in ethanol, 318.15 K | 0.0289
in ethyl acetate, 283.15 K | 0.00628
in ethyl acetate, 285.65 K | 0.00648
in ethyl acetate, 288.15 K | 0.00665
in ethyl acetate, 290.65 K | 0.00691
in ethyl acetate, 293.15 K | 0.00717
in ethyl acetate, 295.65 K | 0.00746
in ethyl acetate, 298.15 K | 0.00773
in ethyl acetate, 300.65 K | 0.00804
in ethyl acetate, 303.15 K | 0.00838
in ethyl acetate, 305.65 K | 0.00878
in ethyl acetate, 308.15 K | 0.00918
in ethyl acetate, 310.65 K | 0.00961
in ethyl acetate, 313.15 K | 0.0101
in ethyl acetate, 315.65 K | 0.0106
in ethyl acetate, 318.15 K | 0.0111
in isopropanol, 283.15 K | 0.0141
in isopropanol, 285.65 K | 0.0147
in isopropanol, 288.15 K | 0.0155
in isopropanol, 290.65 K | 0.0163
in isopropanol, 293.15 K | 0.0171
in isopropanol, 295.65 K | 0.0179
in isopropanol, 298.15 K | 0.0189
in isopropanol, 300.65 K | 0.0198
in isopropanol, 303.15 K | 0.0208
in isopropanol, 305.65 K | 0.0217
in isopropanol, 308.15 K | 0.0227
in isopropanol, 310.65 K | 0.0237
in isopropanol, 313.15 K | 0.0248
in isopropanol, 315.65 K | 0.0257
in isopropanol, 318.15 K | 0.0268
in methanol, 283.15 K | 0.0156
in methanol, 285.65 K | 0.0164
in methanol, 288.15 K | 0.0172
in methanol, 290.65 K | 0.018
in methanol, 293.15 K | 0.0189
in methanol, 295.65 K | 0.0199
in methanol, 298.15 K | 0.0209
in methanol, 300.65 K | 0.0219
in methanol, 303.15 K | 0.023
in methanol, 305.65 K | 0.024
in methanol, 308.15 K | 0.0252
in methanol, 310.65 K | 0.0264
in methanol, 313.15 K | 0.0276
in methanol, 315.65 K | 0.0289
in methanol, 318.15 K | 0.0302
in n-propanol, 283.15 K | 0.0136
in n-propanol, 285.65 K | 0.0142
in n-propanol, 288.15 K | 0.0148
in n-propanol, 290.65 K | 0.0154
in n-propanol, 293.15 K | 0.016
in n-propanol, 295.65 K | 0.0167
in n-propanol, 298.15 K | 0.0174
in n-propanol, 300.65 K | 0.0181
in n-propanol, 303.15 K | 0.0188
in n-propanol, 305.65 K | 0.0196
in n-propanol, 308.15 K | 0.0204
in n-propanol, 310.65 K | 0.0213
in n-propanol, 313.15 K | 0.0221
in n-propanol, 315.65 K | 0.023
in n-propanol, 318.15 K | 0.0239
in toluene, 283.15 K | 2.5e-05
in toluene, 285.65 K | 2.85e-05
in toluene, 288.15 K | 3.35e-05
in toluene, 290.65 K | 3.84e-05
in toluene, 293.15 K | 4.45e-05
in toluene, 295.65 K | 5.09e-05
in toluene, 298.15 K | 5.84e-05
in toluene, 300.65 K | 6.64e-05
in toluene, 303.15 K | 7.62e-05
in toluene, 305.65 K | 8.68e-05
in toluene, 308.15 K | 9.91e-05
in toluene, 310.65 K | 0.000113
in toluene, 313.15 K | 0.000129
in toluene, 315.65 K | 0.000146
in toluene, 318.15 K | 0.000165
